Test results from publication PMC2586337 (Biochemistry, 2008).
Like-named read-outs stand apart in the source and are kept apart here. One block for each molecule: values may come before it.

What was measured:
primase (UL5/UL8/UL52) [1] = target: T1, primase (UL5/UL8/UL52) (Human herpesvirus 1, UniProt P10236); test: Incorporation of nucleotides as the 5′-terminal nucleotide of the primer; assay type: biochemical, herpes simplex virus I
primase (UL5/UL8/UL52) [2] = target: T1, primase (UL5/UL8/UL52); test: Polymerization of nucleoside triphosphates onto a RNA primer:DNA template; assay type: biochemical, herpes simplex virus I; conditions: for VMax: primer:template DNAT, DNAC or DNAG; for Km: primer:template with next correct NTP: DNAT (ATP), DNAC (GTP), DNAG (CTP)
primase (UL5/UL8/UL52) [3] = target: T1, primase (UL5/UL8/UL52); test: Incorporation of nucleotides as the second nucleotide of the primer; assay type: biochemical, herpes simplex virus I
primase (UL5/UL8/UL52) [4] = target: T1, primase (UL5/UL8/UL52); test: Primer synthesis on d; assay type: biochemical, herpes simplex virus I; conditions: for incorporation by primase opposite template dG (new products of altered mobility): template d(GTCT)15, ATP, 800 μM analogue; for incorporation by primase opposite template dG (new products of altered mobility) / primers elongated after incorporation of the nucleotide: GTP; for chain termination after incorporation: template d(GTCT)15, ATP and GTP; for primers elongated after incorporation of the nucleotide: 800 μM ATP
primase (UL5/UL8/UL52) [5] = target: T1, primase (UL5/UL8/UL52); test: Inhibition of NTP polymerization onto primer:templates; assay type: biochemical; conditions: for type of inhibition with respect to GTP incorporation: data not shown
primase (UL5/UL8/UL52) [6] = target: T1, primase (UL5/UL8/UL52); assay type: biochemical, herpes simplex virus I
[7] = inhibition of ATP polymerization, ATP (100 μM), DNAT
[8] = inhibition of GTP polymerization, 800 μM GTP, DNAC
[9] = inhibition of GTP polymerization, GTP (100 μM), DNAC
[10] = IC50, inhibition of GTP polymerization, 800 μM GTP, DNAC

T1 sequence (P10189 whole entry): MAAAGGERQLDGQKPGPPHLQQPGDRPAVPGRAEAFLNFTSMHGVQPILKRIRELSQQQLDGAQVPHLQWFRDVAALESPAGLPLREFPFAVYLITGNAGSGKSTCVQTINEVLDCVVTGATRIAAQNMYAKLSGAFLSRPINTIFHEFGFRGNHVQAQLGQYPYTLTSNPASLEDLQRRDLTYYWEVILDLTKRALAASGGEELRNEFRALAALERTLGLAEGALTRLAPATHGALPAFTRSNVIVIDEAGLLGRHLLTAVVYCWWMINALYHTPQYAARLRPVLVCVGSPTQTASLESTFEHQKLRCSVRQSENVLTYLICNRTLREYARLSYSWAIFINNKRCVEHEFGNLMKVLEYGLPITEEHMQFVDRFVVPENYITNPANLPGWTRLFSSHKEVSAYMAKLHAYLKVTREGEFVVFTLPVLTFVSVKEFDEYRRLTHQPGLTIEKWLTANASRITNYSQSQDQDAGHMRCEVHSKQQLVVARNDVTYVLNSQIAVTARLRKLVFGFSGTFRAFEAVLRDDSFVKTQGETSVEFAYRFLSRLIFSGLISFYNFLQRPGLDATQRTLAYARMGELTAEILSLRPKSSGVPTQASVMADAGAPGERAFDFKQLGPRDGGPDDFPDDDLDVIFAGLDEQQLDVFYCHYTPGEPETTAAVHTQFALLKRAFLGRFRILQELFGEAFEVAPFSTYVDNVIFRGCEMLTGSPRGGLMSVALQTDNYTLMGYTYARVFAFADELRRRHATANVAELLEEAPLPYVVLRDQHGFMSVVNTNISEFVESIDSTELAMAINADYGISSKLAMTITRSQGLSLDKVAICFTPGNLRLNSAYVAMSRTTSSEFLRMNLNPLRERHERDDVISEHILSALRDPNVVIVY
T1 sequence (P10192 whole entry, further chain): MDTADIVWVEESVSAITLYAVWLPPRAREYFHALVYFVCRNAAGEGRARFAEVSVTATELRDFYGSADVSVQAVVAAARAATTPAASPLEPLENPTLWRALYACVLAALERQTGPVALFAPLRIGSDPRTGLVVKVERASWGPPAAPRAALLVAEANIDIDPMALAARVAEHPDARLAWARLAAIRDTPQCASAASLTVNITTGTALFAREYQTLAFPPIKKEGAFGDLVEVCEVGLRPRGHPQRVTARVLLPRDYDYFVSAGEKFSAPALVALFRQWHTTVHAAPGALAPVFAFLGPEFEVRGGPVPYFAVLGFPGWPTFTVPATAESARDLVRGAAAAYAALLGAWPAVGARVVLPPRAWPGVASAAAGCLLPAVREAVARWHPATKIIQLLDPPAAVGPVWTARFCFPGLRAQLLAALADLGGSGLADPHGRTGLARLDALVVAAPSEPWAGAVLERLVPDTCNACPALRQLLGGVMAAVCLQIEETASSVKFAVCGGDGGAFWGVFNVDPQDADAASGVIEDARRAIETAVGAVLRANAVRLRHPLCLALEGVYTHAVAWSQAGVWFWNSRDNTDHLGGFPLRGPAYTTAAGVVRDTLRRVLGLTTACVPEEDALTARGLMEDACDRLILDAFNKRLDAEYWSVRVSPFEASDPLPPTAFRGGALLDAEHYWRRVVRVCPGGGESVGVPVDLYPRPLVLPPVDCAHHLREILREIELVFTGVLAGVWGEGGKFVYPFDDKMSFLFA
T1 sequence (P10236 whole entry): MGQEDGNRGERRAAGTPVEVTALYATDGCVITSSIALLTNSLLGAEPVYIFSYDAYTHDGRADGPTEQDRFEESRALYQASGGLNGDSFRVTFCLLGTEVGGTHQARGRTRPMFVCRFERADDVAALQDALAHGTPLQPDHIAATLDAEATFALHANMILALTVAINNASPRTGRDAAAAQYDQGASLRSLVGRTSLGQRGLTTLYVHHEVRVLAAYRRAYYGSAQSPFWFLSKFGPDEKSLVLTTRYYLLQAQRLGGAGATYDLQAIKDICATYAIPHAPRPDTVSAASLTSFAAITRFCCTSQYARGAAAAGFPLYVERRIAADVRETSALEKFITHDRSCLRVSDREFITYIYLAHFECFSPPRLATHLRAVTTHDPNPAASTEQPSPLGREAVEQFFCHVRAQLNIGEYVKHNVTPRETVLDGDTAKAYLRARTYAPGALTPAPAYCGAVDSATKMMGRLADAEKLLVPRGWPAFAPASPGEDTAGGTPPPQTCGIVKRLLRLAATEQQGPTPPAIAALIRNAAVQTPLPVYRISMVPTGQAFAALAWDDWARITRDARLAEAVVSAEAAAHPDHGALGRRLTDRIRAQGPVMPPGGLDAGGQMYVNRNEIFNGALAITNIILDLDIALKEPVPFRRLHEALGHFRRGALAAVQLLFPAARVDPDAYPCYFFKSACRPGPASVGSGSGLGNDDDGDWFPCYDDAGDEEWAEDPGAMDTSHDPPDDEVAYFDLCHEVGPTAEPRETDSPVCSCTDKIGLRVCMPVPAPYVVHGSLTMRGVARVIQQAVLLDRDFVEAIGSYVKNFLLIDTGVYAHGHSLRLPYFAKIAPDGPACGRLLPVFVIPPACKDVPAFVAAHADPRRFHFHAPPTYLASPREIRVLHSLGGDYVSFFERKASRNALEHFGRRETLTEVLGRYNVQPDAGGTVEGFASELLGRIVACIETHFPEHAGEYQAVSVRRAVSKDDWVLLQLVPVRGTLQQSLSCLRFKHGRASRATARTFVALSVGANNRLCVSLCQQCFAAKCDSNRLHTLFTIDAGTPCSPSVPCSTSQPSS

Compound: Nc1ncnc2c1ncn2[C@H]1C[C@H](O)[C@@H](COP(=O)(O)OP(=O)(O)OP(=O)(O)O)O1 [2′-dATP]
VMax (primase (UL5/UL8/UL52) [1]): 20 ± 1.1 pmol/min
VMax (primase (UL5/UL8/UL52) [2]): 0.024 ± 0.06 pmol/h
Km (primase (UL5/UL8/UL52) [2]): 770 ± 370 µM
VMax (primase (UL5/UL8/UL52) [3]): >10 pmol/min

Compound: Nc1ccn([C@H]2C[C@H](O)[C@@H](COP(=O)(O)OP(=O)(O)OP(=O)(O)O)O2)c(=O)n1 [2′-dCTP]
VMax (primase (UL5/UL8/UL52) [2]): 0.16 ± 0.036 pmol/h
Km (primase (UL5/UL8/UL52) [2]): 640 ± 360 µM
incorporation by primase opposite template dG (new products of altered mobility) (primase (UL5/UL8/UL52) [4]): readily incorporates

Compound: Nc1nc2c(ncn2[C@H]2C[C@H](O)[C@@H](COP(=O)(O)OP(=O)(O)OP(=O)(O)O)O2)c(=O)[nH]1 [2′-dGTP]
VMax (primase (UL5/UL8/UL52) [2]): 0.18 ± 0.02 pmol/h
Km (primase (UL5/UL8/UL52) [2]): 130 ± 80 µM
VMax (primase (UL5/UL8/UL52) [3]): 5.3 ± 0.8 pmol/min

Compound: Nc1ncnc2c1ncn2[C@@H]1O[C@H](COP(=O)(O)OP(=O)(O)OP(=O)(O)O)C[C@H]1O [3′-dATP, cordycepin triphosphate]
IC50 (primase (UL5/UL8/UL52) [5]; inhibition of ATP polymerization, 800 μM ATP, DNAT): 1100 ± 170 µM

IC50 (primase (UL5/UL8/UL52) [5]): 3200 ± 570 µM
Compound: Nc1nc2c(ncn2COCCOP(=O)(O)OP(=O)(O)OP(=O)(O)O)c(=O)[nH]1 [ACVTP, acyclovir triphosphate]

IC50 (primase (UL5/UL8/UL52) [5]; [7]): > 10000 µM
Compound: Nc1ncnc2c1ncn2[C@@H]1O[C@H](COP(=O)(O)OP(=O)(O)O)[C@@H](O)[C@H]1O [ADP]

IC50 (primase (UL5/UL8/UL52) [5]; [7]): > 10000 µM
Compound: Nc1ncnc2c1ncn2[C@@H]1O[C@H](COP(=O)(O)O)[C@@H](O)[C@H]1O [AMP]

Compound: Nc1ncnc2c1ncn2[C@@H]1O[C@H](COP(=O)(O)OP(=O)(O)OP(=O)(O)O)[C@@H](O)[C@H]1O [ATP]
VMax (primase (UL5/UL8/UL52) [1]): 14 ± 1.7 pmol/min
VMax (primase (UL5/UL8/UL52) [2]): 0.23 ± 0.09 pmol/h
Km (primase (UL5/UL8/UL52) [2]): 1700 ± 960 µM
VMax (primase (UL5/UL8/UL52) [3]): 5.1 ± 1.8 pmol/min

Compound: Nc1ncnc2c1ncn2[C@@H]1O[C@H](COP(=O)(O)OP(=O)(O)OP(=O)(O)O)[C@@H](O)[C@@H]1O [AraATP, arabionfuranosyladenine triphosphate]
VMax (primase (UL5/UL8/UL52) [1]): 0.04 ± 0.005 pmol/min
VMax (primase (UL5/UL8/UL52) [2]): 0.026 ± 0.004 pmol/h
Km (primase (UL5/UL8/UL52) [2]): 190 ± 110 µM
VMax (primase (UL5/UL8/UL52) [3]): 1.0 ± 0.16 pmol/min

Compound: Nc1ccn([C@@H]2O[C@H](COP(=O)(O)OP(=O)(O)OP(=O)(O)O)[C@@H](O)[C@@H]2O)c(=O)n1 [AraCTP, arabinofuranosylcytosine triphosphate]
VMax (primase (UL5/UL8/UL52) [2]): 0.30 ± 0.05 pmol/h
Km (primase (UL5/UL8/UL52) [2]): 360 ± 190 µM
chain termination after incorporation (primase (UL5/UL8/UL52) [4]): very strong chain termination
incorporation by primase opposite template dG (new products of altered mobility) (primase (UL5/UL8/UL52) [4]): polymerized

Compound: Nc1nc2c(ncn2[C@@H]2O[C@H](COP(=O)(O)OP(=O)(O)OP(=O)(O)O)[C@@H](O)[C@@H]2O)c(=O)[nH]1 [AraGTP, arabinofuranosylguanine triphosphate]
VMax (primase (UL5/UL8/UL52) [2]): 0.044 ± 0.006 pmol/h
Km (primase (UL5/UL8/UL52) [2]): 300 ± 140 µM
VMax (primase (UL5/UL8/UL52) [3]): 4.1 ± 0.3 pmol/min

Compound: Nc1ccn([C@@H]2O[C@H](COP(=O)(O)OP(=O)(O)OP(=O)(O)O)[C@@H](O)[C@H]2O)c(=O)n1 [CTP]
VMax (primase (UL5/UL8/UL52) [2]): 1.2 ± 0.16 pmol/h
Km (primase (UL5/UL8/UL52) [2]): 1100 ± 280 µM
primers elongated after incorporation of the nucleotide (primase (UL5/UL8/UL52) [4]; template d(GTCT)15): 75%
incorporation by primase opposite template dG (new products of altered mobility) (primase (UL5/UL8/UL52) [4]): readily incorporates

IC50 (primase (UL5/UL8/UL52) [5]; [8]): 3400 ± 880 µM
Compound: Nc1nc(O)c2ncn(COC(CO)COP(=O)(O)OP(=O)(O)OP(=O)(O)O)c2n1 (centres unmarked) [GCVTP, ganciclovir triphosphate]

type of inhibition with respect to GTP incorporation (primase (UL5/UL8/UL52) [5]): competitive
IC50 (primase (UL5/UL8/UL52) [5]; [9]): 4400 ± 650 µM
Compound: Nc1nc2c(ncn2[C@@H]2O[C@H](COP(=O)(O)OP(=O)(O)O)[C@@H](O)[C@H]2O)c(=O)[nH]1 [GDP]

IC50 (primase (UL5/UL8/UL52) [5]; [9]): 3800 ± 540 µM
Compound: Nc1nc2c(ncn2[C@@H]2O[C@H](COP(=O)(O)O)[C@@H](O)[C@H]2O)c(=O)[nH]1 [GMP]

Compound: Nc1nc2c(ncn2[C@@H]2O[C@H](COP(=O)(O)OP(=O)(O)OP(=O)(O)O)[C@@H](O)[C@H]2O)c(=O)[nH]1 [GTP]
VMax (primase (UL5/UL8/UL52) [1]): 1.1 ± 0.27 pmol/min
VMax (primase (UL5/UL8/UL52) [2]): 0.060 ± 0.012 pmol/h
Km (primase (UL5/UL8/UL52) [2]): 230 ± 170 µM
VMax (primase (UL5/UL8/UL52) [3]): 9.5 ± 1.3 pmol/min

Compound: Nc1ccn(C2SC(COP(=O)(O)OP(=O)(O)OP(=O)(O)O)C(O)C2O)c(=O)n1 (centres unmarked) [SaraCTP, 4′-thio-arabinofuranosylcytosine triphosphate]
chain termination after incorporation (primase (UL5/UL8/UL52) [4]): very strong chain termination
incorporation by primase opposite template dG (new products of altered mobility) (primase (UL5/UL8/UL52) [4]): polymerized

Compound: Nc1ccn([C@@H]2O[C@H](COP(=O)(O)OP(=O)(O)OP(=O)(O)O)[C@@H](O)C2(F)F)c(=O)n1 [dFdCTP, 2′,2′-Difluoro-2′-deoxycytidine triphosphate]
primers elongated after incorporation of the nucleotide (primase (UL5/UL8/UL52) [4]; template d(GTCT)15): 11%
inhibition of primase (primase (UL5/UL8/UL52) [4]; 800 μM, template d(GTCT)15): relatively strong inhibition
chain termination after incorporation (primase (UL5/UL8/UL52) [4]): strong chain termination
incorporation by primase opposite template dG (new products of altered mobility) (primase (UL5/UL8/UL52) [4]): polymerized

Compound: Nc1ncnc2c1ncn2[C@H]1CC[C@@H](COP(=O)(O)OP(=O)(O)OP(=O)(O)O)O1 [ddATP]
IC50 (primase (UL5/UL8/UL52) [5]; IC50, inhibition of ATP polymerization, 800 μM ATP, DNAT): 1700 ± 110 µM
IC50 (primase (UL5/UL8/UL52) [5]; [10]): 2400 ± 900 µM

Compound: Nc1ccn([C@H]2CC[C@@H](COP(=O)(O)OP(=O)(O)OP(=O)(O)O)O2)c(=O)n1 [ddCTP]
IC50 (primase (UL5/UL8/UL52) [5]; [10]): 800 ± 120 µM
incorporation by primase opposite template dG (new products of altered mobility) (primase (UL5/UL8/UL52) [4]): does not readily incorporate
inhibition of primase (primase (UL5/UL8/UL52) [4]; template d(GTCT)15, increased ddCTP concentration, data not shown): > 90%

Compound: Nc1nc2c(ncn2[C@H]2CC[C@@H](COP(=O)(O)OP(=O)(O)OP(=O)(O)O)O2)c(=O)[nH]1 [ddGTP]
inhibition of primase activity (primase (UL5/UL8/UL52) [6]; template C20GCCCTA15, increasing ddGTP up to 2 mM): up to 90%
incorporation by primase as third and later nucleotide (new products) (primase (UL5/UL8/UL52) [6]; template C20GCCCTA15 for GTP analogues, ATP, [α-32P]GTP, partly data not shown): no new products
type of inhibition with respect to GTP incorporation (primase (UL5/UL8/UL52) [5]): competitive
IC50 (primase (UL5/UL8/UL52) [5]; [8]): 1100 ± 180 µM
